Values after ≈ are worked out from the molar mass of the structure shown.
Legend:
[1] = system: NIH-3T3; assay: MTT analysis, cytotoxicity against normal cell line; format: cell-based, mouse; conditions: 10 μg/ml sample
[2] = system: HS-746T; assay: MTT analysis, anticancer activity; format: cell-based, human; conditions: 10 μg/ml sample
[3] = system: mouse; conditions: intraperitoneal, Rao et al.; cited from earlier work
[4] = system: HS-578T; assay: MTT analysis, anticancer activity; format: cell-based, human; conditions: 10 μg/ml sample
[5] = system: SK-BR-3; assay: MTT analysis, anticancer activity; format: cell-based, human; conditions: 48 hr
[6] = system: BT-549; assay: MTT analysis, anticancer activity; format: cell-based, human; conditions: 10 μg/ml sample
[7] = system: NCI-H69; assay: MTT analysis, anticancer activity; format: cell-based, human; conditions: 10 μg/ml sample
[8] = system: A431; assay: MTT analysis, anticancer activity; format: cell-based, human; conditions: 48 hr
[9] = system: DU-145 prostate cancer cell line; assay: MTT analysis, anticancer activity; format: cell-based, human; conditions: 48 hr
Protocol: (§1) To be specific, SK-Hep-1 cell, which is liver cancer cell line, was added to 96-well microplate (Falcon, USA) with the concentration of 3×10^5 cells/ml by 100 μl per well. Each extracted and separated substance dissolved in DMSO was added to the well by 100 μl for the final concentration to be from 50 μg/ml to 0.0244 μg/ml, with 200 μl of final volume. Each cell was cultured for 48 hr in a culture medium of 37° C. and 5% CO2. After cultivation, 20 μl of phosphate buffer solution containing 5 mg/ml of MTT (3-[4,5-dimethylthiazol-2-yl]-2,5-diphenyltetrazoliumbromide, Sigma Co.) reagent was added to each well, and then cultured for 4 hr. After taking 100 μl of supernant from each culture medium, 100 μl of 0.04N hydrochloric acid-isopropanol was added. After letting alone overnight, absorbance was measured at 560 nm using automatic Eliza detector (Molecular Divices Corp., USA). Anticancer activity of each extracted and separated substance was calculated from the absorbance value by Equation 1 and was expressed in terms of cell.
(§2) Average Existence Rate(%)=(Absorbance of Treated Group)/(Absorbance of Control Group)×100

[10] = system: Hep-2; assay: MTT analysis, anticancer activity; format: cell-based, human; conditions: MTT, 48 hr
[11] = system: HT-29; assay: MTT analysis, anticancer activity; format: cell-based, human; conditions: 10 μg/ml sample
[12] = system: mouse; conditions: reported by Rao et al.; cited from earlier work
[13] = system: SK-N-SH; assay: MTT analysis, anticancer activity; format: cell-based, human; conditions: 48 hr
[14] = system: BT-20; assay: MTT analysis, anticancer activity; format: cell-based, human; conditions: 48 hr
[15] = system: 3T3-L1; assay: MTT analysis, cytotoxicity against normal cell line; format: cell-based, mouse; conditions: 10 μg/ml sample
[16] = system: HS683; assay: MTT analysis, anticancer activity; format: cell-based, human; conditions: 48 hr
[17] = system: SK-MEL-28; assay: MTT analysis, anticancer activity; format: cell-based, human; conditions: 48 hr
[18] = system: HeLa; assay: MTT analysis, anticancer activity; format: cell-based, human; conditions: 48 hr
[19] = system: SK-Hep-1 liver cancer cell line; assay: MTT analysis, anticancer activity; format: cell-based, human; conditions: 48 hr
Protocol: as §1, §2

[20] = system: SK-OV-3; assay: MTT analysis, anticancer activity; format: cell-based, human; conditions: 10 μg/ml sample
[21] = system: 293; assay: MTT analysis, cytotoxicity against normal cell line; format: cell-based, human; conditions: 10 μg/ml sample
[22] = system: KATO-III; assay: MTT analysis, anticancer activity; format: cell-based, human; conditions: MTT, 48 hr
[23] = system: HS27; assay: MTT analysis, cytotoxicity against normal cell line; format: cell-based, human; conditions: 10 μg/ml sample
[24] = system: CPAE; assay: as above; format: cell-based, bovine; conditions: 10 μg/ml sample
[25] = system: T98G; assay: MTT analysis, anticancer activity; format: cell-based, human; conditions: 48 hr
[26] = system: ME-180; assay: MTT analysis, anticancer activity; format: cell-based, human; conditions: 10 μg/ml sample
[27] = system: HT1080; assay: MTT analysis, anticancer activity; format: cell-based, human; conditions: 48 hr
[28] = system: T-47D; assay: MTT analysis, anticancer activity; format: cell-based, human; conditions: 48 hr
[29] = system: CHO; assay: MTT analysis, cytotoxicity against normal cell line; format: cell-based, Chinese hamster; conditions: 10 μg/ml sample
[30] = system: MCF-7; assay: MTT analysis, anticancer activity; format: cell-based, human; conditions: MTT, 48 hr
[31] = Solubility; format: physicochemical
[32] = system: PC-3 prostate cancer cell line; assay: MTT analysis, anticancer activity; format: cell-based, human; conditions: 48 hr
Protocol: as §1, §2

[33] = system: LoVo; assay: MTT analysis, anticancer activity; format: cell-based, human; conditions: 10 μg/ml sample

**Q.** Which results are given for `COc1ccc(C(O)C(C)Oc2ccc(C3OC(c4ccc(OC(C)[C@@H](O)c5ccc(OC)c(OC)c5)c(OC)c4)C(C)C3C)cc2OC)cc1OC` (single isomer, unassigned) [HNP-98701C, manassantin A]?
**A.** Existence rate class, NIH-3T3 (in IC50 table) [1]: N.E. (Not effective; existence rate larger than 90% for 10 μg/ml sample); Existence rate class, HS-746T (in IC50 table) [2]: * (Existence rate larger than 60% for 10 μg/ml sample); spontaneous movement 50% reduction concentration (IC50) [3]: 0.21 ± 0.02 mg/kg; Existence rate class, HS-578T (in IC50 table) [4]: N.E. (Not effective; existence rate larger than 90% for 10 μg/ml sample); IC50 SK-BR-3 [5]: 0.0632 µg/mL (≈ 0.0862 µM); Existence rate class, BT-549 (in IC50 table) [6]: * (Existence rate larger than 60% for 10 μg/ml sample); Existence rate class, NCI-H69 (in IC50 table) [7]: * (Existence rate larger than 60% for 10 μg/ml sample); IC50 A431 [8]: 0.3860 µg/mL (≈ 0.527 µM); IC50 DU-145 [9]: 0.0263 µg/mL (≈ 0.0359 µM); IC50 Hep-2 [10]: 0.0367 µg/mL (≈ 0.0501 µM); Existence rate class, HT-29 (in IC50 table) [11]: * (Existence rate larger than 60% for 10 μg/ml sample); 50% lethal dose (LD50) [12]: 5.2 mg/kg; IC50 SK-N-SH [13]: 0.5392 µg/mL (≈ 0.736 µM); IC50 BT-20 [14]: 0.0629 µg/mL (≈ 0.0858 µM); Existence rate class, 3T3-L1 (in IC50 table) [15]: N.E. (Not effective; existence rate larger than 90% for 10 μg/ml sample); IC50 HS683 [16]: 0.2170 µg/mL (≈ 0.296 µM); IC50 SK-MEL-28 [17]: 0.0725 µg/mL (≈ 0.0989 µM); IC50 HeLa [18]: 0.1838 µg/mL (≈ 0.251 µM); IC50 SK-Hep-1 [19]: 0.0560 µg/mL (≈ 0.0764 µM); Existence rate class, SK-OV-3 (in IC50 table) [20]: N.E. (Not effective; existence rate larger than 90% for 10 μg/ml sample); Existence rate class, 293 (in IC50 table) [21]: * (Existence rate larger than 60% for 10 μg/ml sample); IC50 KATO-III [22]: 0.7005 µg/mL (≈ 0.956 µM); Existence rate class, HS27 (in IC50 table) [23]: N.E. (Not effective; existence rate larger than 90% for 10 μg/ml sample); Existence rate class, CPAE (in IC50 table) [24]: * (Existence rate larger than 60% for 10 μg/ml sample); IC50 T98G [25]: 0.1014 µg/mL (≈ 0.138 µM); Existence rate class, ME-180 (in IC50 table) [26]: * (Existence rate larger than 60% for 10 μg/ml sample); IC50 HT1080 [27]: 0.1753 µg/mL (≈ 0.239 µM); IC50 T-47D [28]: 0.1249 µg/mL (≈ 0.17 µM); Existence rate class, CHO (in IC50 table) [29]: * (Existence rate larger than 60% for 10 μg/ml sample); IC50 MCF-7 [30]: >10 µg/mL; Solubility in methanol, ethanol, ethyl acetate, chloroform and dimethylsulfoxide (DMSO) [31]: highly soluble; Solubility in water, acetone, ether and hexane [31]: insoluble; IC50 PC-3 [32]: 0.0446 µg/mL (≈ 0.0609 µM); Existence rate class, LoVo (in IC50 table) [33]: * (Existence rate larger than 60% for 10 μg/ml sample)

— US20040024055A1, “Pharmaceutical composition containing the exract of saururus chinensis baill useful as an anticancer agent and a process for the preparation thereof” (priority 2000, published 2004)
